[C(1O2)] = modified PNA monomer acting as cytosine, C(pOq) type, 1O2; [A(5)] = modified PNA monomer acting as adenine, A(p) type, p=5; [G(5)] = modified PNA monomer acting as guanine, G(p) type, p=5; {Fethoc} = N-terminal Fethoc cap; {NH2} = C-terminal amide
Tests used:
10-mer complementary DNA = assay: Tm between PNA derivatives and 10-mer complementary DNA (N- or C-terminal); format: binding; settings: uncorrected
Outline: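 Tm read by UV at 260 nm for duplexes formed by annealing (90 °C for a minute, slow cooling to ambient) of equimolar 4 μM PNA and complementary 10-mer DNA targeting N- or C-terminal, in 10 mM sodium phosphate, 100 mM NaCl, pH 7.16.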

Nav1.7 protein = assay: Nav1.7 western blot in rat L5 DRG neuronal cells; format: cell-based; settings: rat DRG neuronal cells (L5/L6 ligation)
Procedure: “SCN-ASO 30” was evaluated for its ability to inhibit the expression of Nav1.7 protein in rat DRG neuronal cells as described below.
[Preparation of DRG Neuronal Cells] Male SD rats (7 weeks old) were subjected to tight “L5/L6 ligation”. 7 days later, 4 rats were anesthetized with zoletil/rompun to sample the L5 DRG of the ligated side. The DRGs were pooled and processed to prepare DRG neuronal cells as described in “SCN9A Example 12”.
[ASO Treatment] DRG neuronal cells were treated with “SCN-ASO 30” at 0 (negative control), 10, 100 or 1,000 zM for 24 hours, and then subjected to lysis for western blot against a Nav1.7 antibody (Cat. No. ab85015, Abcam) probing the C-terminal of the Nav1.7 protein. β-actin was probed for reference.

[1] = test system: sodium current in rat L5 DRG neuronal cells; assay: Manual patch clamp sodium current in rat L5 DRG neuronal cells; format: cell-based; settings: rat L5 DRG neuronal cells (L5/L6 ligation), small size, 100 zM, 4 hours
Procedure: “SCN-ASO 30” was evaluated for its ability to inhibit the sodium current in rat L5 DRG neuronal cells stimulated with L5/L6 ligation as provided below.
[Preparation of DRG Neuronal Cells] Male SD rats (6 weeks old) were subjected to tight “L5/L6 ligation”. 7 days later, rats were anesthetized with zoletil/rompun for the extraction of L5 DRG of the ligated side. […]

full-length SCN9A mRNA = assay: SCN9A qPCR by cDNA synthesis with random hexamers in rat L5 DRG cells; format: cell-based; settings: 24 hours
Procedure: “SCN-ASO 30” was evaluated by SCN9A qPCR for its ability to inhibit the expression of the SCN9A mRNA in rat L5 DRG cells. Total RNA was prepared as described in “SCN9A Example 15”, and subjected to cDNA synthesis using random hexamers.
The cDNA solutions were also subjected to qPCR amplification for the GAPDH mRNA. The Ct values of the SCN9A mRNA were normalized against the Ct values of GAPDH mRNA.

mdx mice [2] = assay: Unscheduled death, sacrifice or lymphoma in chronically treated mdx mice; format: in vivo, mouse; settings: DMD-ASO 1 50 pmole/Kg, DMD-ASO 2 or DMD-ASO 6 10 pmole/Kg, subcutaneous 2× per week, 66 weeks
Description: [Grouping & ASO Treatment] Male mdx mice (7 weeks old) were randomly assigned to 4 groups of 0 (mdx negative control), 10, 50, and 200 pmole/Kg “DMD-ASO 1” based on individual grip strength scores by grip test. (N=12 per group) A satellite group of 12 male C57BL/6 mice (7 weeks old) was included in this study as the wild type negative control group for the full-length dystrophin expression level.
The 50 and 200 pmole/Kg group subcutaneously received “DMD-ASO 1” as dissolved in PBS, 2× per week until the final sacrifice in Week 43. In the meantime, the 10 pmole/Kg group subcutaneously received “DMD-ASO 1” initially 2× per week during Week 0 to 8, and 3× per week afterwards to increase the ASO exposure.
[Miscellaneous Findings] There were three cases of unscheduled sacrifice or death (Weeks 26, 39 and 43) in the mdx negative control group due to a large mass of muscular lymphoma developed most likely by chronic muscular inflammation.
“DMD-ASO 1”, “DMD-ASO 2” and “DMD-ASO 6” were evaluated for their physiological effects in male mdx mice by long term subcutaneous administration. In this evaluation the animals were not subjected to physical tests requiring muscular stress in order to keep the transcription of the dystrophin gene undisturbed by excessive muscular stimulation.
[Animals & Grouping] Male mdx mice (6 weeks old) were randomly assigned to 4 groups of the mdx negative control (no ASO treatment), “DMD-ASO 1” 50 pmole/Kg, “DMD-ASO 2” […], and “DMD-ASO 6” […] based on the body weight. (N=12-13 per group) 12 male C57BL/6 mice (6 weeks old) were adopted as the wild type (WT) negative control group.
[Injection Solutions & ASO Treatment] Aqueous mother stock solutions of the ASOs were serially diluted in PBS to prepare the injection solutions of 25 nM “DMD-ASO 1” for 50 pmole/Kg “DMD-ASO 1”, 5 nM “DMD-ASO 2” for “DMD-ASO 2” 10 pmole/Kg, and 5 nM “DMD-ASO 6” for “DMD-ASO 6” 10 pmole/Kg. The animals were subcutaneously administered with the injection solutions at 2 mL/Kg, 2× per week.

mdx mice [3] = assay: Walking distance on tread mill in mdx mice; format: in vivo, mouse; settings: first 30 weeks, injection solutions without Tween 80
Procedure: “DMD-ASO 2” was chronically administered to mdx mice to evaluate its ability to improve muscle function by the walking distance on tread mill, and to inhibit the muscle degradation by the serum levels of creatine kinase (CK) and myoglobin.
[Animals & Grouping] Male mdx mice (6 weeks old) were randomly assigned to three groups of the mdx negative control (no ASO treatment), “DMD-ASO 2” 10 pmole/Kg, and “DMD-ASO 2” […] based on the body weight. (N=16 per group) 12 male C57BL/6 mice (6 weeks old) were adopted as the wild type (WT) negative control group.
[Injection Solutions & ASO Treatment] An aqueous mother stock solution of “DMD-ASO 2” was diluted either in PBS or in PBS supplemented with 0.1% Tween 80 to prepare injection solutions of […] “DMD-ASO 2” for 10 pmole/Kg and 30 pmole/Kg “DMD-ASO 2”, respectively. Supplementation of PBS injection solution with 0.1% Tween 80 was considered to be necessary to prevent the ASO molecules from sticking to plastic injection vials, pipette tips, and syringes.
[Walking Distance on Tread Mill] During the first 30 weeks post grouping, the animals were administered with the injection solutions without Tween 80 2× per week at 2 mL/Kg. Starting from Week 7, the animals were subjected to walking on a tread mill (Model #LE8710, PanLab) on a weekly basis. […]

[4] = test system: serum creatine kinase (CK); assay: Serum creatine kinase level in mdx mice; format: in vivo; settings: Week 48
Procedure: (§1) [Terminal Sacrifice] In Week 48, the animals were subjected to terminal sacrifice for blood sampling. The blood samples were analyzed for the serum level of CK (Creatine Kinase Activity Assay Kit, Cat. Number ab155901, Abcam) and myoglobin (Myoglobin ELISA Kit, Cat. Number ab210965, Abcam) to assess the degree of muscle degradation according to the manufacturer's instructions. Muscle tissues were analyzed by western blot for the full-length dystrophin.
(§2) [Terminal Sacrifice] All the survived animals were sacrificed for blood sampling in Week 66 post the grouping. The blood samples were subjected to ELISA assays for serum creatine kinase (CK) and serum myoglobin as described in “DMD Example 6”.

serum myoglobin = assay: Serum myoglobin level in mdx mice; format: in vivo
Procedure: as §1, §2

full-length dystrophin = assay: Dystrophin western blot in triceps of mdx mice; format: in vivo; settings: Week 48
Procedure: [Full-length Dystrophin Expression in Triceps by Western Blot] Following homogenization at liquid nitrogen temperature, muscle (triceps) samples were subjected to lysis in RIPA buffer supplemented with 1% SDS. The protein concentration in each lysate was quantified by BCA assay against the BSA standard. […] of protein of each lysate was subjected to electrophoretic separation on an 8% PAGE gel. Then the PVDF membrane was probed with a C-terminal targeting dystrophin antibody (Cat. Number ab154168, Abcam).

Substance | Tm Value, 10-mer DNA against C-Terminal (10-mer complementary DNA) [°C] | Tm Value, 10-mer DNA against N-Terminal (10-mer complementary DNA) [°C] | full-length Nav1.7 protein band at 220-240K (Nav1.7 protein; 10 zM, 24 hours) | Nav1.7 expression by western blot (Nav1.7 protein; 100 and 1,000 zM, 24 hour) | decrease of sodium current (manual patch clamp, normalized against cell size) [1] [%] | decrease of full-length SCN9A mRNA expression level (random hexamers, normalized against GAPDH) (full-length SCN9A mRNA) | premature deaths (unscheduled death or sacrifice) (mdx mice [2]) | walking distance on tread mill compared to the mdx negative control group (mdx mice [3]) | serum CK level smaller than the mdx negative control group by ([4]; 10 pmole/Kg) [%] | serum CK level smaller than the mdx negative control group by ([4]; 30 pmole/Kg) [%] | serum myoglobin level smaller than the mdx negative control group by (serum myoglobin; 10 pmole/Kg, Week 48) [%] | serum myoglobin level smaller than the mdx negative control group by (serum myoglobin; 30 pmole/Kg, Week 48) [%] | serum myoglobin level smaller than the mdx negative control group by (serum myoglobin; DMD-ASO 1 50 pmole/Kg, DMD-ASO 2 or DMD-ASO 6 10 pmole/Kg, 2× per week, Week 66) [%] | 130K dystrophin band intensity (western blot, triceps) (full-length dystrophin; 10 pmole/Kg) | 117K dystrophin band (western blot, triceps) (full-length dystrophin; 10 and 30 pmole/Kg)
Fethoc-AA(5)G-TG(5)T-A(5)CC(1O2)-TA(5)A-A(5)G-NH2 (AAGTGTACCTAAAG; all peptide nucleic acid (PNA), [A(5)] at 2, 7, 11, 13, [G(5)] at 5, [C(1O2)] at 9, 5' {Fethoc}, 3' {NH2}; peptide nucleic acid written N to C) [SCN-ASO 30] | 74.0 | 79.0 | detected | markedly inhibited | ~90 | 45-75% |  |  |  |  |  |  |  |  | 
Fethoc-TTG(6)CA(5)G-AG(6)C-C(1O2)TC-AA(5)A-A(5)T-NH2 (antisense TTGCAGAGCCTCAAAAT; Fethoc N-cap, C-terminal amide, chemistry not fully specified) [DMD-ASO 2] |  |  |  |  |  |  | one death in Week 56 and another in Week 62 | failed to show any significant improvements | 58 | 38 | 67 | 58 | 49 | considerably stronger | markedly stronger

From patent US12624068B2, “Exon skipping by peptide nucleic acid derivatives” (OliPass Corporation, priority 2016, dated 2026)
